Data reported in patent US6737383B1, “Herbicidal oxadiazolidines” (priority 1999, dated 2004).

Columns and labels:
[1] = tested on: purple nutsedge; test: Test B pre/postemergence purple nutsedge; format: in vivo, Cyperus rotundus
Method in brief: (§1)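 Test chemicals in a non-phytotoxic solvent mixture with surfactant were sprayed preemergence onto planted seeds and postemergence onto plants 2 to 18 cm tall (1- to 4-leaf stage). After twelve to sixteen days in a greenhouse, injury was visually rated against untreated controls from 0 (no effect) to 10 (complete control).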

[2] = tested on: wild oat; test: Test B pre/postemergence wild oat; format: in vivo, Avena fatua
Method in brief: as §1

[3] = tested on: cocklebur; test: Test B pre/postemergence cocklebur; format: in vivo, Xanthium strumarium
Method in brief: as §1

[4] = tested on: corn; test: Test B pre/postemergence corn; format: in vivo, Zea mays
Method in brief: as §1

[5] = tested on: blackgrass; test: Test B pre/postemergence blackgrass; format: in vivo, Alopecurus myosuroides
Method in brief: as §1

[6] = tested on: bamyardgrass; test: Test B flood test barnyardgrass; format: in vivo, Echinochloa crus-galli
Method in brief: (§2)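 Flood test on plants grown to the 2-leaf stage; treated plants kept in greenhouse twelve to sixteen days, then visually rated against controls on a 0 (no effect) to 10 (complete control) scale.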

[7] = tested on: bedstraw; test: Test B pre/postemergence bedstraw; format: in vivo, Galium aparine; details: Postemergence
Method in brief: as §1

[8] = tested on: wheat; test: Test B pre/postemergence wheat; format: in vivo, Triticum aestivum
Method in brief: as §1

[9] = tested on: giant foxtail; test: Test B pre/postemergence giant foxtail; format: in vivo, Setaria faberii
Method in brief: as §1

[10] = tested on: rice; test: Test B flood test rice; format: in vivo, Oryza sativa
Method in brief: as §2

[11] = tested on: smallflower flatsedge; test: Test B flood test smallflower flatsedge; format: in vivo, Cyperus difformis
Method in brief: as §2

[12] = tested on: sugar beet; test: Test B pre/postemergence sugar beet; format: in vivo, Beta vulgaris
Method in brief: as §1

[13] = tested on: pigweed; test: Test B pre/postemergence pigweed; format: in vivo, Amaranthus retroflexus
Method in brief: as §1

[14] = tested on: crabgrass; test: Test B pre/postemergence crabgrass; format: in vivo, Digitaria sanguinalis
Method in brief: as §1

[15] = tested on: duck salad; test: Test B flood test duck salad; format: in vivo, Heteranthera limosa
Method in brief: as §2

[16] = tested on: morningglory; test: Test B pre/postemergence morningglory; format: in vivo, Ipomoea hederacea
Method in brief: as §1

[17] = tested on: rape; test: Test B pre/postemergence rape; format: in vivo, Brassica napus
Method in brief: as §1

[18] = tested on: soybean; test: Test B pre/postemergence soybean; format: in vivo, Glycine max
Method in brief: as §1

[19] = tested on: surinam grass; test: Test B pre/postemergence surinam grass; format: in vivo, Brachiaria decumbens
Method in brief: as §1

[20] = tested on: velvetleaf; test: Test B pre/postemergence velvetleaf; format: in vivo, Abutilon theophrasti
Method in brief: as §1

[21] = Postemergence, Rate 125 g/ha, scale 0 to 10, 0 is no effect, 10 is complete control
[22] = Postemergence, Rate 500 g/ha, scale 0 to 10, 0 is no effect, 10 is complete control
[23] = Preemergence, Rate 62 g/ha, scale of 0 to 10 where 0 is no effect and 10 is complete control
[24] = Preemergence, Rate 125 g/ha, scale 0 to 10, 0 is no effect, 10 is complete control
[25] = Preemergence, Rate 500 g/ha, scale 0 to 10, 0 is no effect, 10 is complete control
[26] = Rate 62 g/ha, Postemergence, scale 0 to 10 (0 no effect, 10 complete control)
[27] = Postemergence, Rate 250 g/ha, scale 0 to 10
[28] = Preemergence, Rate 250 g/ha, scale 0 to 10, 0 is no effect, 10 is complete control
[29] = Rate 62 g/ha, flood test species, Pre-emergence, visual evaluation after twelve to sixteen days
[30] = Rate 125 g/ha, under heading Pre-emergence, flood test species, visual evaluation after twelve to sixteen days
[31] = Rate 250 g/ha, Pre-emergence (flood test species), scale 0 to 10, 0 is no effect, 10 is complete control
[32] = Rate 500 g/ha, Pre-emergence section of Table B, 0 to 10 scale (0 no effect, 10 complete control)

## CC(C)N(C(=O)n1oc(=O)n(CC(=O)C2CC2)c1=O)c1ccccc1 [Compound 489]
[1]; [21]
  Nutsedge plant response rating: 0
[1]; [22]
  Plant response rating, Nutsedge: 0
[1]; [23]
  Plant response rating, Nutsedge: 0
[1]; [24]
  Nutsedge plant response rating: 0
[1]; [25]
  Nutsedge plant response rating: 0
[1]; [26]
  Nutsedge plant response rating: 0
[2]; [21]
  Wild oats plant response rating: 1
[2]; [22]
  Plant response rating, Wild oats: 3
[2]; [23]
  Plant response rating, Wild oats: 0
[2]; [24]
  Wild oats plant response rating: 4
[2]; [25]
  Wild oats plant response rating: 9
[2]; [26]
  Wild oats plant response rating: 0
[3]; [21]
  Cocklebur plant response rating: 0
[3]; [27]
  Cocklebur plant response rating: 0
[3]; [22]
  Plant response rating, Cocklebur: 0
[3]; [23]
  Plant response rating, Cocklebur: 0
[3]; [24]
  Cocklebur plant response rating: 0
[3]; [28]
  Cocklebur plant response rating: 0
[3]; [25]
  Cocklebur plant response rating: 0
[3]; [26]
  Cocklebur plant response rating: 0
[4]; [21]
  Corn plant response rating: 0
[4]; [27]
  Corn plant response rating: 0
[4]; [22]
  Plant response rating, Corn: 4
[4]; [23]
  Plant response rating, Corn: 0
[4]; [24]
  Corn plant response rating: 0
[4]; [25]
  Corn plant response rating: 5
[4]; [26]
  Corn plant response rating: 0
[5]; [21]
  Blackgrass plant response rating: 6
[5]; [27]
  Blackgrass plant response rating: 8
[5]; [22]
  Plant response rating, Blackgrass: 8
[5]; [23]
  Plant response rating, Blackgrass: 7
[5]; [24]
  Blackgrass plant response rating: 8
[5]; [28]
  Blackgrass plant response rating: 9
[5]; [25]
  Blackgrass plant response rating: 10
[5]; [26]
  Blackgrass plant response rating: 1
[6]; [29]
  Plant response rating, Barnyardgrass (0 to 10 scale, 0 is no effect, 10 is complete control): 0
[6]; [30]
  Barnyardgrass plant response rating (0 to 10 scale, 0 is no effect, 10 is complete control): 0
[6]; [31]
  Barnyardgrass plant response rating: 0
[6]; [32]
  Barnyardgrass plant response rating: 0
[7]; Rate 125 g/ha, scale 0 to 10, 0 is no effect, 10 is complete control
  Bedstraw plant response rating: 3
[7]; Rate 250 g/ha, scale 0 to 10
  Bedstraw plant response rating: 5
[7]; Rate 62 g/ha, scale 0 to 10 (0 no effect, 10 complete control)
  Bedstraw plant response rating: 0
[8]; [21]
  Wheat plant response rating: 0
[8]; [22]
  Plant response rating, Wheat: 2
[8]; [23]
  Plant response rating, Wheat: 0
[8]; [24]
  Wheat plant response rating: 0
[8]; [25]
  Wheat plant response rating: 6
[8]; [26]
  Wheat plant response rating: 0
[9]; [21]
  Giant foxtail plant response rating: 8
[9]; [22]
  Plant response rating, Giant foxtail: 9
[9]; [23]
  Plant response rating, Giant foxtail: 9
[9]; [24]
  Giant foxtail plant response rating: 10
[9]; [25]
  Giant foxtail plant response rating: 10
[9]; [26]
  Giant foxtail plant response rating: 2
[10]; [29]
  Plant response rating, Rice (0 to 10 scale, 0 is no effect, 10 is complete control): 0
[10]; [30]
  Rice plant response rating (0 to 10 scale, 0 is no effect, 10 is complete control): 0
[10]; [31]
  Rice plant response rating: 0
[10]; [32]
  Rice plant response rating: 0
[11]; [29]
  Plant response rating, S. Flatsedge (0 to 10 scale, 0 is no effect, 10 is complete control): 0
[11]; [30]
  S. Flatsedge plant response rating (0 to 10 scale, 0 is no effect, 10 is complete control): 0
[11]; [31]
  S. Flatsedge plant response rating: 0
[11]; [32]
  S. Flatsedge plant response rating: 0
[12]; [21]
  Sugarbeets plant response rating: 0
[12]; [22]
  Plant response rating, Sugarbeets: 0
[12]; [23]
  Plant response rating, Sugarbeets: 0
[12]; [24]
  Sugarbeets plant response rating: 2
[12]; [25]
  Sugarbeets plant response rating: 5
[12]; [26]
  Sugarbeets plant response rating: 0
[13]; [21]
  Redroot pigweed plant response rating: 0
[13]; [22]
  Plant response rating, Redroot pigweed: 2
[13]; [23]
  Plant response rating, Redroot pigweed: 0
[13]; [25]
  Redroot pigweed plant response rating: 10
[13]; [26]
  Redroot pigweed plant response rating: 0
[14]; [21]
  Crabgrass plant response rating: 5
[14]; [27]
  Crabgrass plant response rating: 8
[14]; [22]
  Plant response rating, Crabgrass: 9
[14]; [23]
  Plant response rating, Crabgrass: 9
[14]; [24]
  Crabgrass plant response rating: 10
[14]; [25]
  Crabgrass plant response rating: 10
[14]; [26]
  Crabgrass plant response rating: 2
[15]; [29]
  Plant response rating, Ducksalad (0 to 10 scale, 0 is no effect, 10 is complete control): 0
[15]; [30]
  Ducksalad plant response rating (0 to 10 scale, 0 is no effect, 10 is complete control): 0
[15]; [31]
  Ducksalad plant response rating: 0
[15]; [32]
  Ducksalad plant response rating: 0
[16]; [21]
  Morningglory plant response rating: 7
[16]; [22]
  Plant response rating, Morningglory: 10
[16]; [23]
  Plant response rating, Morningglory: 0
[16]; [24]
  Morningglory plant response rating: 0
[16]; [25]
  Morningglory plant response rating: 1
[16]; [26]
  Morningglory plant response rating: 2
[17]; [21]
  Rape plant response rating: 0
[17]; [22]
  Plant response rating, Rape: 0
[17]; [23]
  Plant response rating, Rape: 0
[17]; [24]
  Rape plant response rating: 0
[17]; [25]
  Rape plant response rating: 9
[17]; [26]
  Rape plant response rating: 0
[18]; [21]
  Soybean plant response rating: 5
[18]; [22]
  Plant response rating, Soybean: 7
[18]; [23]
  Plant response rating, Soybean: 0
[18]; [24]
  Soybean plant response rating: 1
[18]; [25]
  Soybean plant response rating: 3
[18]; [26]
  Soybean plant response rating: 3
[19]; [21]
  B. signalgrass plant response rating: 2
[19]; Postemergence, Rate 250 g/ha, scale 0 to 10, 0 no effect, 10 complete control
  B. signalgrass plant response rating: 6
[19]; [22]
  Plant response rating, B. signalgrass: 8
[19]; [23]
  Plant response rating, B. signalgrass: 6
[19]; [24]
  B. signalgrass plant response rating: 7
[19]; [28]
  B. signalgrass plant response rating: 8
[19]; [25]
  B. signalgrass plant response rating: 9
[19]; [26]
  B. signalgrass plant response rating: 1
[20]; [21]
  Velvetleaf plant response rating: 0
[20]; [22]
  Plant response rating, Velvetleaf: 5
[20]; [23]
  Plant response rating, Velvetleaf: 2
[20]; [24]
  Velvetleaf plant response rating: 2
[20]; [25]
  Velvetleaf plant response rating: 7
[20]; [26]
  Velvetleaf plant response rating: 0
